Experimental data as given in PMC9862227, “ATP and nucleic acids competitively modulate LLPS of the SARS-CoV2 nucleocapsid protein” (Communications Biology, 2023).

Target: T1, N (1-249) (Severe acute respiratory syndrome coronavirus 2, UniProt P0DTC9)
T1 construct: fragment 1-249 of the 419-residue protein (IDR1, NTD, IDR2); pET-28a, N-terminal 6xHis-SUMO tag removed with TEV protease; E. coli BL21; 15N-labelled
Experiment: biochemical
Assay type: binding

Nc1ncnc2c1ncn2[C@@H]1O[C@H](COP(=O)(O)OP(=O)(O)OP(=O)(O)O)[C@@H](O)[C@H]1O [ATP]
Kd: 2000 ± 200 µM
